Experimental data reported in ChEMBL document CHEMBL1201862, “PubChem BioAssay data set” (2004).
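Briefly, cells in 96-well plates were exposed to five compound concentrations for 48 h, and endpoints were estimated by linear interpolation. The concentration for 50% growth inhibition is given as GI50.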 Active and inactive are the calls of the source. Rule as the data show it: active = GI50 up to about 1.1 µM and inactive = higher.

Experiments:
Assay in all cases: NCI-60 cell line screen, 48 h
A549 = tested on: A549
ACHN = tested on: ACHN
CCRF-CEM = tested on: CCRF-CEM
EKVX = tested on: EKVX
HL-60 = tested on: HL-60
HOP-62 = tested on: HOP-62
HOP-92 = tested on: HOP-92
Hs-578T = tested on: Hs-578T
M14 = tested on: M14
MCF7 = tested on: MCF7
MDA-MB-231 = tested on: MDA-MB-231
MDA-N = tested on: MDA-N
NCI-H226 = tested on: NCI-H226
NCI-H460 = tested on: NCI-H460
NCI-H522 = tested on: NCI-H522
OVCAR-4 = tested on: OVCAR-4
PC-3 = tested on: PC-3
SK-OV-3 = tested on: SK-OV-3
SNB-19 = tested on: SNB-19
UACC-62 = tested on: UACC-62

| SMILES | GI50 (A549) | GI50 (ACHN) | GI50 (CCRF-CEM) | GI50 (EKVX) | GI50 (HL-60) | GI50 (HOP-62) | GI50 (HOP-92) | GI50 (Hs-578T) | GI50 (M14) | GI50 (MCF7) | GI50 (MDA-MB-231) | GI50 (MDA-N) | GI50 (NCI-H226) | GI50 (NCI-H460) | GI50 (NCI-H522) | GI50 (OVCAR-4) | GI50 (PC-3) | GI50 (SK-OV-3) | GI50 (SNB-19) | GI50 (UACC-62) |
| --- | --- | --- | --- | --- | --- | --- | --- | --- | --- | --- | --- | --- | --- | --- | --- | --- | --- | --- | --- | --- |
| COc1cc(/C=C\c2nnc(/C=C\c3ccc(O)c(OC)c3)s2)ccc1O | 3.13 µM (inactive) | 3.61 µM (inactive) | 2.18 µM (inactive) | 3.74 µM (inactive) | 1.64 µM (inactive) | 5.65 µM (inactive) | 4.79 µM (inactive) | 3.01 µM (inactive) | 2.11 µM (inactive) | 0.69 µM (active) | 4.94 µM (inactive) | 0.689 µM (active) | 7.28 µM (inactive) | 3.09 µM (inactive) | 1.67 µM (inactive) | 2.61 µM (inactive) | 3.94 µM (inactive) | 4.41 µM (inactive) | 4.58 µM (inactive) | 2.48 µM (inactive) |
| COC(=O)Nc1nc2cc(NS(=O)(=O)c3cccs3)ccc2[nH]1 | 43.9 µM (inactive) | 42.8 µM (inactive) | 34.8 µM (inactive) | 22.4 µM (inactive) | 23 µM (inactive) | 26.4 µM (inactive) | 16.3 µM (inactive) | 10.4 µM (inactive) | 21.5 µM (inactive) | 17.8 µM (inactive) | 31 µM (inactive) | 3.56 µM (inactive) | 32.2 µM (inactive) | 32.2 µM (inactive) | 6.55 µM (inactive) | 38.9 µM (inactive) | 33.9 µM (inactive) | 28.4 µM (inactive) | 23.2 µM (inactive) | 17 µM (inactive) |
| Cc1nnc(Sc2nc(C#N)c(C#N)nc2Sc2nnc(C)s2)s1 | 22.1 µM (inactive) | 2.93 µM (inactive) | 2.1 µM (inactive) | 19.3 µM (inactive) | 2.72 µM (inactive) | 23.3 µM (inactive) | 2.14 µM (inactive) | 14.6 µM (inactive) | 8.2 µM (inactive) | 5.82 µM (inactive) | 15.9 µM (inactive) | 12.2 µM (inactive) | 20.8 µM (inactive) | 28.6 µM (inactive) | 1.57 µM (inactive) | 13.4 µM (inactive) | 14.8 µM (inactive) | 17.2 µM (inactive) | 22 µM (inactive) | 17.2 µM (inactive) |
| C=CCn1c2c(c3ccccc3c1=O)C(=O)c1ccccc1-2 | > 100 µM (inactive) | 51.9 µM (inactive) | > 100 µM (inactive) | > 100 µM (inactive) | 3.41 µM (inactive) | 31.4 µM (inactive) | > 100 µM (inactive) | > 60.3 µM (inactive) | > 100 µM (inactive) | > 100 µM (inactive) | > 85.3 µM (inactive) | > 100 µM (inactive) | > 100 µM (inactive) | 6.28 µM (inactive) | > 100 µM (inactive) | 54.8 µM (inactive) | > 100 µM (inactive) | > 100 µM (inactive) | 73.8 µM (inactive) | > 78 µM (inactive) |
| Cc1ccc([N+](=O)[O-])c2c(NCCNC(=O)c3cc(C(=O)NCCNc4ccnc5c(C)ccc([N+](=O)[O-])c45)n(C)n3)ccnc12 | > 57.1 µM (inactive) | > 100 µM (inactive) | 36 µM (inactive) | > 100 µM (inactive) | 53.6 µM (inactive) | > 60 µM (inactive) | > 100 µM (inactive) | > 87.3 µM (inactive) | > 72.4 µM (inactive) | > 21.5 µM (inactive) | > 54 µM (inactive) | > 43.7 µM (inactive) | > 100 µM (inactive) | > 100 µM (inactive) | > 67.3 µM (inactive) | > 49.1 µM (inactive) | > 100 µM (inactive) | > 100 µM (inactive) | > 100 µM (inactive) | > 47.4 µM (inactive) |
| CCOC(=O)CSc1nnc2cc(CN3CCCC3)c(-c3ccc(Cl)cc3)nn12 | > 100 µM (inactive) | > 100 µM (inactive) | 48.1 µM (inactive) | > 100 µM (inactive) | 89.3 µM (inactive) | > 100 µM (inactive) | > 100 µM (inactive) | > 100 µM (inactive) | > 100 µM (inactive) | 46.9 µM (inactive) | > 100 µM (inactive) | 85.9 µM (inactive) | > 100 µM (inactive) | 48.4 µM (inactive) | 39.7 µM (inactive) | 33.6 µM (inactive) | > 100 µM (inactive) | > 100 µM (inactive) | > 100 µM (inactive) | > 100 µM (inactive) |
| C/C(=N\NC(=S)N1CCN(c2ccccn2)CC1)c1cccc2cccnc12 | 5.25 µM (inactive) | 4.01 µM (inactive) | 2.18 µM (inactive) | 3.59 µM (inactive) | 0.828 µM (active) | 6.05 µM (inactive) | 3.98 µM (inactive) | 9.08 µM (inactive) | 5.15 µM (inactive) | 3.6 µM (inactive) | 4.42 µM (inactive) | 4.71 µM (inactive) | 5.77 µM (inactive) | 3.51 µM (inactive) | 2.28 µM (inactive) | 4.03 µM (inactive) | 3.67 µM (inactive) | 11.4 µM (inactive) | 5.78 µM (inactive) | 3.53 µM (inactive) |
| c1cnc2c(c1)ccc1cccnc12 | 5.07 µM (inactive) | 2.86 µM (inactive) | 1.87 µM (inactive) | 3.91 µM (inactive) | 0.354 µM (active) | 5.83 µM (inactive) | 8.91 µM (inactive) | > 36.3 µM (inactive) | 4.02 µM (inactive) | 3.66 µM (inactive) | > 42.1 µM (inactive) | 4.97 µM (inactive) | 2.05 µM (inactive) | 2.74 µM (inactive) | 5.86 µM (inactive) | 4.63 µM (inactive) | > 27.1 µM (inactive) | 11.7 µM (inactive) | 8.57 µM (inactive) | 3.81 µM (inactive) |
| COc1cccc2c1C(=O)C1=C(C2=O)C(O)CC(C)(C)O1 (stereo not given) | 32.1 µM (inactive) | 36.1 µM (inactive) | 23.4 µM (inactive) | 43.1 µM (inactive) | 11.7 µM (inactive) | > 100 µM (inactive) | 53.2 µM (inactive) | > 100 µM (inactive) | 54.6 µM (inactive) | 36.6 µM (inactive) | 25.6 µM (inactive) | 19.5 µM (inactive) | > 100 µM (inactive) | 42.9 µM (inactive) | 26.2 µM (inactive) | 19.3 µM (inactive) | 25.5 µM (inactive) | > 100 µM (inactive) | 76.7 µM (inactive) | 25.1 µM (inactive) |
| NCCCC(N)C(=O)O (stereo not given) | > 100 µM (inactive) | > 100 µM (inactive) | > 100 µM (inactive) | > 100 µM (inactive) | > 100 µM (inactive) | > 100 µM (inactive) | > 100 µM (inactive) | > 100 µM (inactive) | > 100 µM (inactive) | > 100 µM (inactive) | > 100 µM (inactive) | > 100 µM (inactive) | 77.8 µM (inactive) | > 100 µM (inactive) | > 100 µM (inactive) | > 100 µM (inactive) | > 100 µM (inactive) | > 100 µM (inactive) | > 100 µM (inactive) | > 100 µM (inactive) |
| O=C(NN=C1NCCN1)c1ccco1 | > 100 µM (inactive) | > 100 µM (inactive) | > 100 µM (inactive) | > 100 µM (inactive) | > 100 µM (inactive) | > 100 µM (inactive) | > 100 µM (inactive) | > 100 µM (inactive) | > 100 µM (inactive) | > 100 µM (inactive) | > 100 µM (inactive) | > 100 µM (inactive) | 62.4 µM (inactive) | > 100 µM (inactive) | > 100 µM (inactive) | > 100 µM (inactive) | > 100 µM (inactive) | > 100 µM (inactive) | > 100 µM (inactive) | > 100 µM (inactive) |
| N#Cc1c(Cl)c(C=O)c(=O)n2c1[nH]c1ccccc12 | > 100 µM (inactive) | 84.3 µM (inactive) | 40.4 µM (inactive) | > 100 µM (inactive) | 42.6 µM (inactive) | 39 µM (inactive) | 24.2 µM (inactive) | 45.1 µM (inactive) | 28.4 µM (inactive) | 33.3 µM (inactive) | 31.8 µM (inactive) | 43.7 µM (inactive) | 24.7 µM (inactive) | > 100 µM (inactive) | 44 µM (inactive) | 84.5 µM (inactive) | 55.1 µM (inactive) | > 100 µM (inactive) | 63.8 µM (inactive) | 55.6 µM (inactive) |
| [N-]=[N+]=NCC1OC(n2cnc3c(N)ncnc32)C2OC12 (stereo not given) | > 100 µM (inactive) | > 100 µM (inactive) | > 100 µM (inactive) | > 100 µM (inactive) | > 100 µM (inactive) | > 100 µM (inactive) | > 100 µM (inactive) | > 100 µM (inactive) | > 100 µM (inactive) | > 100 µM (inactive) | > 100 µM (inactive) | > 100 µM (inactive) | > 100 µM (inactive) | > 100 µM (inactive) | > 100 µM (inactive) | > 100 µM (inactive) | > 100 µM (inactive) | > 100 µM (inactive) | > 100 µM (inactive) | > 100 µM (inactive) |
| O=c1[nH]nc(Cc2ccccc2)n1/N=C/c1ccc([N+](=O)[O-])o1 | 4.1 µM (inactive) | 3.4 µM (inactive) | 1.16 µM (inactive) | 3.77 µM (inactive) | 2.95 µM (inactive) | 3.08 µM (inactive) | 3.03 µM (inactive) | 1 µM (active) | 2.24 µM (inactive) | 1.86 µM (inactive) | 3.38 µM (inactive) | 1.69 µM (inactive) | 12.5 µM (inactive) | 3.46 µM (inactive) | 1.39 µM (inactive) | 4.92 µM (inactive) | 3.15 µM (inactive) | 15.4 µM (inactive) | 4.83 µM (inactive) | 1.75 µM (inactive) |
